Read-outs that look alike come from different tables or passages of the source. Marks after values point to notes of the source that are not given here.
Tests used:
[1] = tested on: Hep 3B cells; test: Cell cycle determination by flow cytometry, Hep 3B; assay type: cell-based, human; settings: cell line not given
[2] = tested on: Hep 3B cells; settings: human, 48 h
Text: (§1) Human hepatoma cell lines Hep G2 and Hep 3 were chosen as the in vitro models of hepatocytes and hepatoma, respectively.

[3] = in vitro; settings: human, Cell viability
Text: as §1

[4] = tested on: Hep G2 cells; test: MTT cell viability assay, Hep G2 cells (serum-free DMEM); settings: Homo sapiens
Text: as §1

[5] = tested on: Hep 3B cells; test: MTT cell viability assay, Hep 3B cells (serum-free DMEM); settings: for viability at 5 µM / viability at 10 µM / viability at 25 µM / viability at 50 µM / IC50: Homo sapiens, Hep3B
Text: as §1

Compound: O=C(/C=C/c1ccc(O)c(O)c1)OCCc1ccccc1 [CAPE, caffeic acid phenethyl ester]
- cell cycle arrest stage [1]: G1 arrest
- Cell viability ([2]; 5 μM): 88.8 ± 1.6^b % of control
- Cell viability ([2]; 10 μM): 77.4 ± 1.8^c % of control
- viability at 48 h, 5 μM [3]: 70.2 ± 1.7%
- viability at 48 h, 10 μM [3]: 47.7 ± 5.6%
- viability at 48 hr, 5 μM [3]: 71.1 ± 1.8%
- viability at 48 hr, 10 μM [3]: 47.4 ± 3%
- viability at 48 hr, 25 μM [3]: 42.6 ± 1.3%
- viability at 48 hr, 50 μM [3]: 7.5 ± 0.6%
- viability at 72 h, 5 μM [3]: 36.8 ± 6.7%
- viability at 72 h, 10 μM [3]: 20 ± 4%
- viability at 72 h, 25 μM [3]: 13.2 ± 1.1%
- viability at 72 hr, 5 μM [3]: 42.3 ± 2.5%
- viability at 72 hr, 10 μM [3]: 21.2 ± 5%
- viability at 72 hr, 25 μM [3]: 12.5 ± 3%
- viability at 72 hr, 50 μM [3]: 1.9 ± 1.8%
- IC50 ([4]; HepG2, 48 h, read-out: IC50 (cell viability), 48 hr): 9.5 µM
- IC50 ([4]; HepG2, 72 h, read-out: IC50 (cell viability), 72 hr): 4.5 µM
- Ratio, inhibition (%) Hep 3B/inhibition (%) Hep G2 ([5]; CAPE 5 μM alone, 72 hr, Table 23): 0.4**
- Ratio, inhibition (%) Hep 3B/inhibition (%) Hep G2 ([5]; CAPE 5 μM, 48 hr): 0.4***
- Ratio, inhibition (%) Hep 3B/inhibition (%) Hep G2 ([5]; CAPE 5 μM, 72 hr): 0.5***
- Ratio, inhibition (%) Hep 3B/inhibition (%) Hep G2 ([5]; CAPE 10 μM alone, 72 hr, Table 23): 0.6***
- Ratio, inhibition (%) Hep 3B/inhibition (%) Hep G2 ([5]; CAPE 10 μM, 48 hr): 0.5***
- Ratio, inhibition (%) Hep 3B/inhibition (%) Hep G2 ([5]; CAPE 10 μM, 72 hr): 0.7**
- Ratio, inhibition (%) Hep 3B/inhibition (%) Hep G2 ([5]; CAPE 25 μM alone, 72 hr, Table 23): 0.9
- Ratio, inhibition (%) Hep 3B/inhibition (%) Hep G2 ([5]; CAPE 25 μM, 48 hr): 1.1
- Ratio, inhibition (%) Hep 3B/inhibition (%) Hep G2 ([5]; CAPE 25 μM, 72 hr): 1.0
- Ratio, inhibition (%) Hep 3B/inhibition (%) Hep G2 ([5]; CAPE 50 μM, 48 hr): 0.9**
- Ratio, inhibition (%) Hep 3B/inhibition (%) Hep G2 ([5]; CAPE 50 μM, 72 hr): 1.0
- viability at 5 µM ([5]; 48 h, read-out: Cell viability, CAPE 5 μM, 48 hr): 87.1 ± 1.8%
- viability at 10 µM ([5]; 48 h, read-out: Cell viability, CAPE 10 μM, 48 hr): 73.2 ± 1.2%
- viability at 25 µM ([5]; 48 h, read-out: Cell viability, CAPE 25 μM, 48 hr): 38.2 ± 4.7%
- viability at 50 µM ([5]; 48 h, read-out: Cell viability, CAPE 50 μM, 48 hr): 20.5 ± 4.6%
- IC50 ([5]; 48 h, read-out: IC50 (cell viability), 48 hr): 19.9 µM
- viability at 5 µM ([5]; 72 h, read-out: Cell viability, CAPE 5 μM alone, 72 hr, Table 23): 74.2 ± 6.8%
- viability at 5 µM ([5]; 72 h, read-out: Cell viability, CAPE 5 μM, 72 hr): 70.8 ± 2.6%
- viability at 10 µM ([5]; 72 h, read-out: Cell viability, CAPE 10 μM alone, 72 hr, Table 23): 53.5 ± 5%
- viability at 10 µM ([5]; 72 h, read-out: Cell viability, CAPE 10 μM, 72 hr): 47.6 ± 1.9%
- viability at 25 µM ([5]; 72 h, read-out: Cell viability, CAPE 25 μM alone, 72 hr, Table 23): 22.3 ± 5.7%
- viability at 25 µM ([5]; 72 h, read-out: Cell viability, CAPE 25 μM, 72 hr): 12.5 ± 4.8%
- viability at 50 µM ([5]; 72 h, read-out: Cell viability, CAPE 50 μM, 72 hr): 0%
- IC50 ([5]; 72 h, read-out: IC50 (cell viability), 72 hr): 9.5 µM
- Ratio, inhibition (%) Hep 3B/inhibition (%) Hep G2 ([5]; no lovastatin 48 hr, then CAPE 5 μM 48 hr): 0.4***
- Ratio, inhibition (%) Hep 3B/inhibition (%) Hep G2 ([5]; no lovastatin 48 hr, then CAPE 10 μM 48 hr): 0.4***
